Test: xn = mol fraction of the nth substance listed
Details: 101 kPa

CC[n+]1ccn(C)c1.O=S(=O)([O-])C(F)(F)F + COCCO
speed of sound [m/s]
Details	298.15 K	303.15 K	308.15 K	313.15 K	318.15 K
x1 = 0.0531	1359	–	1327	1310.8	1294.7
x1 = 0.1062	1367	1351.6	1336.4	–	1305.4
x1 = 0.1999	–	1365.9	1351.6	1337.2	–
x1 = 0.2935	1392	1378.7	–	1351.8	1338.3
x1 = 0.3958	1403.5	1390.9	1378.3	1365.7	–
x1 = 0.4452	–	1396.2	1383.9	1371.6	1359.3
x1 = 0.5036	1413.9	1402	1390	1378	1366.1
x1 = 0.5752	1419.9	1408.2	1396.6	1385	–
x1 = 0.6452	–	1413.5	1402.1	1390.8	1379.4
x1 = 0.7142	1429.2	1417.9	1406.7	1395.5	1384.3
x1 = 0.8049	–	1422.5	1411.3	–	1389.2
x1 = 0.8751	1436.5	1425.1	1413.9	1402.8	1391.8
x1 = 0.9522	–	1427	1415.7	1404.5	–
x1 = 1	1435.8	–	1413.5	1402.4	1391.4

COCCO + CC[n+]1ccn(C)c1.O=S(=O)([O-])C(F)(F)F
x2 = 0
Details	speed of sound [m/s]
298.15 K	1342.3
308.15 K	1308.2
313.15 K	1290.8
318.15 K	1273.6
